{
  "source": "patent US20140378408A1",
  "about": "“NUCLEOSIDE 5'-PHOSPHOROTHIOATE ANALOGUES AND USES THEREOF” (BAR-ILAN UNIVERSITY, an Israeli University, priority 2012, published 2014)",
  "key": {"Aβ28-Cu^+ complex": {"target": "T1, Aβ28-Cu^+ complex (Homo sapiens, UniProt P05067)", "T1 construct": "we first studied Aβ28, as a more soluble fragment of Aβ40; purchased Sigma-Aldrich", "T1 sequence (P05067 672-699 limits assumed, one chain of several)": "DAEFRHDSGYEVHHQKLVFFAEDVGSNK", "assay": "Titration of Aβ28-Cu^+ complex by chelators monitored by 1H-NMR", "details": "6 eq chelator, 0.8 mM Aβ28-Cu^+, pD 7"}, "Aβ40-Cu^2+ aggregates": {"target": "T2, Aβ40-Cu^2+ aggregates (Homo sapiens, UniProt P05067)", "T2 construct": "purchased GL-Biochem (Shanghai)", "T2 sequence (P05067 672-711 limits assumed)": "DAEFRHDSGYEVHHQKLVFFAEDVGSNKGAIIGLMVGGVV", "assay": "DLS, size reduction of Aβ40-Cu^2+ aggregates", "details": "aggregate alone 1836 nm; 25 μM Aβ40-Cu^2+, pH 6.6", "method": "PBS buffer, Aβ40, chelator, Zn(NO3)2, and Cu(NO3)2 solutions were filtered through a […] PVDF syringe filter. 496 μM Aβ40 solution in 10 mM PBS (pH 7.4) and 2 mM Zn(NO3)2 solution were mixed to obtain 200 μM Aβ40-Zn^2+ (1:1 ratio) of a cloudy solution. Similarly, 2 mM Cu(NO3)2 solution was added to 496 μM Aβ40 in 10 mM PBS (pH 6.6). Aβ40-Zn^2+/Cu^2+ (10 μl) solution was transferred to Eppendorf tubes containing 10 mM PBS buffer (64 or 67 μl) followed by the addition of 3 and 6 eq of 2 mM nucleotide (6 or 3 μl) solution and incubation for 45 min at RT. The resulting mixture was incubated for another 30 min at RT and DLS data were then collected in a 70 μl disposable cuvette. The final sample concentrations were 25 μM Aβ40, 25 μM Zn^2+ or Cu^2+, and 150 or 75 μM nucleotide.\nMonomeric Aβ40 was incubated with either Cu^2+ or Zn^2+ for 45 min to form a 1:1 peptide metal-ion complex. […] For the Aβ40-Zn^2+ particles the instrument readings indicated a different size distribution. […] We evaluated the capacity of the phosphorothioate analogues to dissolve Aβ40-Cu^2+ or Zn^2+ aggregates, as compared to EDTA and clioquinol known for their ability to dissolve Aβ-M^2+ aggregates (Ritchie et al., 2003; Huang et al., 1997). The reduction of dH of Aβ40-Cu^2+ aggregates by EDTA, clioquinol, or tested compounds was compared to the dH of Aβ-Cu^2+ aggregate itself (FIG. 5A). In addition, the efficacy of the chelators ATP-γ-S, ADP-β-S, APCPP-γ-S and GDP-β-S to resolubilize Aβ40-Cu^2+ and Aβ40-Zn^2+ is described in FIGS. 5B and 5C relative to EDTA and clioquinol. EDTA efficiency in reducing Aβ particle size is considered as 100%."}, "Aβ40-Zn^2+ aggregates": {"target": "T3, Aβ40-Zn^2+ aggregates (Homo sapiens, UniProt P05067)", "T3 construct": "Monomeric Aβ40 was incubated with either Cu^2+ or Zn^2+; purchased GL-Biochem (Shanghai)", "T3 sequence (P05067 672-711 limits assumed)": "as above", "assay": "DLS, re-solubilization of Aβ40-Zn^2+ aggregates", "details": "EDTA = 100%, clioquinol value refers to FIG. 5B, 5C"}, "cortical neurons": {"system": "cortical neurons", "assay": "Neuroprotection of cultured cortical neurons exposed to FeSO4 or FeSO4/H2O2", "format": "cell-based", "details": "for protection: co-application with FeSO4 3 μM", "method": "FIGS. 10A-10B show the neuroprotective effect of ATP-γ-S and GDP-β-S (0.2-200 μM, t=24 h) as evaluated by MTT production in cortical neurons exposed for 24 h to either FeSO4 at final concentration of 3 μM (10A); or both FeSO4 (3 μM) and H2O2 (100 μM) (10B). The results shown are the mean±SEM of three independent experiments in quadruplicate.\nCultured cortical neurons in 96-well plates were treated with different concentrations of FeSO4, or hydrogen peroxide and FeSO4, for 24 h at 37° C. Following exposure to various insults, the cells were treated with ATP-γ-S and GDP-β-S as described. Cells were subsequently incubated for a further 18-24 h as indicated before being assessed for viability measures. Neurons were treated with ATP-γ-S and GDP-β-S at three concentrations ([…]) simultaneously with 1.5, 3 or 6 μM FeSO4 for 24 h. Following 24 h incubation in the presence of both FeSO4 and ATP-γ-S and GDP-β-S cell viability measures were assessed by XTT assay. All experiments were performed in triplicate.\nFeSO4 induced a concentration-dependent decrease in cell viability as assessed by XTT assay and morphological assessment following 24 h of exposure (FIG. 9). The neuroprotective effect of ATP-γ-S and GDP-β-S (due to iron chelation) was evaluated in cortical neurons exposed to FeSO4 for 24 h (FIG. 10)."}, "primary neurons": {"system": "primary neurons", "assay": "Protection of primary neuron culture against Aβ42 insult (trypan blue count)", "format": "cell-based", "method": "Primary neuron cells were cultured in 96 wells plate (95×10^4 per well). After 24 h the cells were treated with 50 μM Aβ42 and various concentrations of APCPP-γ-S (0.04-25 μM) for 48 h. Cell viability was measured by dyeing the cells with trypan blue and counts of the vital cells. The results shown are the mean±S.D of three independent experiments in triplicate (*P<0.05, vs. Aβ42 treatment).\nPrimary neurons cells were cultured in 96 wells plate (95×10^4 per well). […] Cell viability was measured by dyeing the cells with trypan blue and counts the vital cells. The results shown are the mean±S.D of three independent experiments in triplicate (*P<0.05, **P<0.01 vs. Aβ42 treatment).\nIn this study, the neuroprotective activity of APCPP-γ-S in neuronal cells exposed to toxic Aβ42 was evaluated. At first we measured the number of the viable neuronal cells after treatment with Aβ42 (5-50 μM) (FIG. 11). At 50 μM Aβ42, 50% of the neuronal culture remained vital. Next, we measured the protective effect of APCPP-γ-S: primary neurons were treated with APCPP-γ-S (0.04-25 μM) and 50 μM Aβ42 for 48 h."}, "TNAP": {"target": "T4, TNAP (Homo sapiens, UniProt P05186)", "T4 sequence (P05186 18-501)": "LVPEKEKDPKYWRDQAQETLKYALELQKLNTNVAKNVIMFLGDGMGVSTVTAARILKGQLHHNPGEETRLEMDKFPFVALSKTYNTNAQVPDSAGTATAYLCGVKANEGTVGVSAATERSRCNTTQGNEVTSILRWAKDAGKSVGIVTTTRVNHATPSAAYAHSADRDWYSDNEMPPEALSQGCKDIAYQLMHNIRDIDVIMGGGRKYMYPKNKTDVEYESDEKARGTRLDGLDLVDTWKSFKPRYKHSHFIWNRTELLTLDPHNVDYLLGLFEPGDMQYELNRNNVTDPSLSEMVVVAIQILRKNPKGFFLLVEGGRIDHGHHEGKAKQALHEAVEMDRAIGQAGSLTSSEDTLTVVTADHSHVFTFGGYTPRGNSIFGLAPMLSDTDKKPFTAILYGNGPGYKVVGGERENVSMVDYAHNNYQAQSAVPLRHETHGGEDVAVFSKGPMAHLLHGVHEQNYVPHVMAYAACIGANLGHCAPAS", "assay": "Hydrolysis by TNAP", "format": "in vitro ADME", "details": "1 h", "source_text": "The metabolic stability of APPCCl2P-α-S (isomer A) and APCPP-γ-S was further proven by their resistance to enzymatic hydrolysis by TNAP."}, "[1]": {"details": "literature; cited from earlier work"}, "PC12 cells [2]": {"system": "PC12 cells", "assay": "Inhibition of Fe(II)-induced ROS formation in PC12 cells (DCFH-DA)", "format": "cell-based", "details": "PC12 cells, FeSO4 0.16 μM, 1 h, DCFH-DA; read-out: IC50 inhibition of ROS formation", "method": "In this study, nucleoside 5′-phosphorothioate analogues were explored as inhibitors of Fe(II)-induced oxidative stress in PC12 cells used as a neuronal model. Reduction of ROS production in PC12 cells by each one of the tested analogues was measured by DCFH-DA, a radical sensitive indicator. After DCFH-DA was removed, the tested analogue was added to the cells at a final concentration of 0.2-200 μM. Oxidation was initiated by the addition of FeSO4 (0.16 μM) to the wells. The plates were incubated for 1 h at 37° C., during which the absorbance was read by a Tecan fluorometer at 485/530 nm."}, "[3]": {"details": "OH radical inhibition, Fe^2+/H2O2 system, earlier work; cited from earlier work"}, "PC12 cells [4]": {"system": "PC12 cells", "assay": "Stability of nucleotides in PC12 cells"}, "[5]": {"assay": "ESR OH radical assay, Cu^+/H2O2 Fenton system", "details": "N/A = minimal radical production exceeds 10%"}, "[6]": {"assay": "ESR OH radical assay, Fe^2+/H2O2 Fenton system", "details": "N/A = minimal radical production exceeds 10%"}, "[7]": {"details": "literature; cited from earlier work", "remark": "listed apart in the source"}, "[8]": {"details": "Table 2, neuroprotection of primary neurons exposed to FeSO4, read-out: IC50"}, "[9]": {"details": "co-application of FeSO4 3 μM and H2O2 100 μM, read-out: IC50 neuroprotection"}, "[10]": {"details": "cortical neurons, FeSO4 3 μM, 24 h, read-out: IC50 neuroprotection"}},
  "note": "Read-outs that look alike come from different tables or passages of the source.",
  "data": [
    {"molecule": "Oc1c(I)cc(Cl)c2cccnc12", "note": "[Clioquinol, 5-chloro-7-iodoquinolin-8-ol]", "values": [
      {"measurement": "effect on Aβ28-Cu^+ 1H-NMR spectrum", "setting": "Aβ28-Cu^+ complex", "value": "slightly sharpened, yet, no signal pattern emerged"},
      {"measurement": "dH (particle size) of Aβ40-Cu^2+ after chelator", "setting": "Aβ40-Cu^2+ aggregates", "value": 127, "unit": "nm"},
      {"measurement": "efficacy in resolubilizing aggregates relative to EDTA", "setting": "Aβ40-Zn^2+ aggregates", "value": "ca. 75 % of EDTA efficacy"}
    ]},
    {"molecule": "Nc1ncnc2c1ncn2[C@@H]1O[C@H](COP(=O)(O)OP(=O)(O)OP(=O)(O)O)[C@@H](O)[C@H]1O", "note": "[ATP, adenosine triphosphate]", "values": [
      {"measurement": "IC50", "setting": "cortical neurons; Cortical neurone, Table 2, neuroprotection of primary neurons exposed to FeSO4, read-out: IC50", "value": "30000 ± 2100", "unit": "nM"},
      {"measurement": "neuronal cells maintained", "setting": "primary neurons; at 25 μM, 50 μM Aβ42, 48 h", "value": 45, "unit": "%"},
      {"measurement": "Hydrolysis by TNAP", "setting": "TNAP", "value": 100, "unit": "%"},
      {"measurement": "log K of Cu^2+ complex", "setting": "[1]", "value": 6.34}
    ]},
    {"molecule": "Nc1ncnc2c1ncn2[C@@H]1O[C@H](COP(=O)(O)OP(=O)(O)OP(O)(O)=S)[C@@H](O)[C@H]1O", "note": "[ATP-γ-S, Adenosine 5′-[γ-thio]-triphosphate]", "values": [
      {"measurement": "IC50", "setting": "PC12 cells [2]", "value": 180, "unit": "nM"},
      {"measurement": "IC50", "setting": "cortical neurons; [8]", "value": "10 ± 8", "unit": "nM"},
      {"measurement": "IC50", "setting": "cortical neurons; [9]", "value": 1000, "unit": "nM"},
      {"measurement": "protection", "setting": "cortical neurons; 24 h", "value": 100, "unit": "%"},
      {"measurement": "IC50", "setting": "cortical neurons; [10]", "value": 10, "unit": "nM"},
      {"measurement": "IC50", "setting": "cortical neurons; primary cortical neuronal cells, read-out: IC50 protection from damage caused by FeSO4", "value": 10, "unit": "nM"},
      {"measurement": "IC50", "setting": "primary neurons; 50 μM Aβ42, 48 h, read-out: concentration that maintained 50% of neuronal cells", "value": 800, "unit": "nM"},
      {"measurement": "IC50", "setting": "primary neurons; primary neurons, read-out: IC50 protection from Aβ42 insult", "value": 800, "unit": "nM"},
      {"measurement": "dH (particle size) of Aβ40-Cu^2+ after chelator", "setting": "Aβ40-Cu^2+ aggregates", "value": 110, "unit": "nm"},
      {"measurement": "times more active than ATP", "setting": "[3]", "value": 100},
      {"measurement": "times more active than Trolox", "setting": "[3]", "value": 20}
    ]},
    {"molecule": "Nc1nc2c(ncn2[C@@H]2O[C@H](COP(=O)(O)OP(O)(O)=S)[C@@H](O)[C@H]2O)c(=O)[nH]1", "note": "[GDP-β-S, guanosine 5′-[β-thio]diphosphate]", "values": [
      {"measurement": "IC50", "setting": "PC12 cells [2]", "value": 10000, "unit": "nM"},
      {"measurement": "IC50", "setting": "cortical neurons; [8]", "value": "80 ± 3", "unit": "nM"},
      {"measurement": "IC50", "setting": "cortical neurons; [9]", "value": 4000, "unit": "nM"},
      {"measurement": "protection", "setting": "cortical neurons; 24 h", "value": 130, "unit": "%"},
      {"measurement": "IC50", "setting": "cortical neurons; [10]", "value": 8, "unit": "nM"},
      {"measurement": "effect on Aβ28-Cu^+ 1H-NMR spectrum", "setting": "Aβ28-Cu^+ complex", "value": "partial recovery of Aβ28 aromatic signals"},
      {"measurement": "fold more stable in PC12 cells than parent nucleotide (GDP, ADP)", "setting": "PC12 cells [4]", "value": 4.5, "unit": "fold"}
    ]},
    {"molecule": "O=C(O)CN(CCN(CC(=O)O)CC(=O)O)CC(=O)O", "note": "[EDTA, ethylenediamine tetraacetic acid]", "values": [
      {"measurement": "IC90", "setting": "[5]", "value": "110 ± 7", "unit": "µM"},
      {"measurement": "IC90", "setting": "[6]", "value": "98 ± 1", "unit": "µM"},
      {"measurement": "log K of Cu^2+ complex", "setting": "[1]", "value": 18.8},
      {"measurement": "log K of Zn^2+ complex", "setting": "[7]", "value": 16.5}
    ]}
  ]
}
